Experimental data as given in patent US20160297763A1, “Heteroaryl hydroxamic acid derivatives and their use in the treatment, amelioration or prevention of a viral disease” (priority 2011, published 2016).

The compounds below were run on influenza A virus A/Aichi/2/68 (H3N2) (assay: Cytopathic effect (CPE) assay H3N2). Conditions: not given.
Type: cell-based, influenza A virus (H3N2) on MDCK cells
Description: A possible measure of the […] antiviral activity of the compounds having the formula I or II is the CPE assay disclosed herein. […] In this connection, the reduction in the virus-mediated cytopathic effect (CPE) upon treatment with the compounds was calculated as follows: The cell viability of infected-treated and uninfected-treated cells was determined using an ATP-based cell viability assay (Promega). The response in relative luminescent units (RLU) of infected-untreated samples was subtracted from the response (RLU) of the infected-treated samples and then normalized to the viability of the corresponding uninfected sample resulting in % CPE reduction.
The influenza A virus (IAV) was obtained from American Tissue Culture Collection (A/Aichi/2/68 (H3N2); VR-547). Virus stocks were prepared by propagation of virus on Mardin-Darby canine kidney (MDCK; ATCC CCL-34) cells and infectious titres of virus stocks were determined by the 50% tissue culture infective dose (TCID50) analysis as described in Reed, L. J., and H. Muench. 1938, Am. J. Hyg. 27:493-497.
MDCK cells were seeded in 96-well plates at 2×10^4 cells/well using DMEM/Ham's F-12 (1:1) medium containing 10% foetal bovine serum (FBS), 2 mM L-glutamine and 1 antibiotics (all from PAA). Until infection the cells were incubated for 5 hrs at 37° C., 5.0 CO2 to form a ˜80% confluent monolayer on the bottom of the well. Each test compound was dissolved in DMSO and generally tested at 25 μM and 250 μM. In those cases where the compounds were not soluble at that concentration they were tested at the highest soluble concentration. The compounds were diluted in infection medium (DMEM/Ham's F-12 (1:1) containing 5 μg/ml trypsin, and 1% antibiotics) for a final plate well DMSO concentration of 1%. The virus stock was diluted in infection medium (DMEM/Ham's F-12 (1:1) containing 5 μg/ml Trypsin, 1% DMSO, and 1% antibiotics) to a theoretical multiplicity of infection (MOI) of 0.05.
After removal of the culture medium and one washing step with PBS, virus and compound were added together to the cells. In the wells used for cytotoxicity determination (i.e. in the absence of viral infection), no virus suspension was added. Instead, infection medium was added. Each treatment was conducted in two replicates. After incubation at 37° C., 5% CO2 for 48 hrs, each well was observed microscopically for apparent cytotoxicity, precipitate formation, or other notable abnormalities. Then, cell viability was determined using CellTiter-Glo luminescent cell viability assay (Promega). The supernatant was removed carefully and 65 μl of the reconstituted reagent were added to each well and incubated with gentle shaking for 15 min at room temperature. Then, 60 μl of the solution was transferred to an opaque plate and luminescence (RLU) was measured using Synergy HT plate reader (Biotek).
Relative cell viability values of uninfected-treated versus uninfected-untreated cells were used to evaluate cytotoxicity of the compounds. Substances with a relative viability below 80% at the tested concentration were regarded as cytotoxic and retested at lower concentrations.
Reduction in the virus-mediated cytopathic effect (CPE) upon treatment with the compounds was calculated as follows: The response (RLU) of infected-untreated samples was subtracted from the response (RLU) of the infected-treated samples and then normalized to the viability of the corresponding uninfected sample resulting in % CPE reduction.

Row | SMILES | CPE H3N2 (insoluble): solubility in the assay
1 | Cc1c(Cc2ccc(Cl)cc2)sc2nc(N)[nH]c(=O)c12 [SAV-7609] | reduction (%) insoluble

Same assay, conditions: Influenza A virus, H3N2, activity conc 1 (μM per method); read-out: CPE H3N2 reduction (%)

Row | SMILES | inhibition at 1 µM [%]
2 | CCONC(=O)c1cc(NCc2cccc(OCc3ccccc3)c2)ccn1 | 1.2
3 | CCONC(=O)c1cc(NCCCc2cccc(Cl)c2)ccn1 [drawing 168] | -0.3

Same assay, conditions: Influenza A virus, H3N2, activity conc 2 (μM per method); read-out: CPE H3N2 reduction (%)

Row | SMILES | inhibition at 2 µM [%]
4 | O=C(c1cc2ccccc2cn1)N(O)CCCc1ccccc1 | 4.4
5 | COC1=CC=C(c2ccnc(C(=O)N(O)Cc3ccccc3)c2)CC1 | -2.5
6 | CC(C)(C)OC(=O)N1C=C(c2ccnc(C(=O)N(O)Cc3ccccc3)c2)CCC1 | 3.9
7 | CC(C)(C)OC(=O)N1C2C=C(c3ccnc(C(=O)N(O)Cc4ccccc4)c3)CC1CC2 (stereo not shown) | -5.3
8 | O=C(NOCc1ccccc1)c1ccc(-c2ccccc2)cn1 [drawing 172] | -4

Same assay, conditions: Influenza A virus, H3N2, activity conc 5 (μM per method); read-out: CPE H3N2 reduction (%)

Row | SMILES | inhibition at 5 µM [%]
9 | O=C(NO)c1cc(N2CCCCC2)ccn1 | -4.1
10 | O=C(NO)c1cc(NCc2ccccc2)ccn1 | -0.5
11 | CN(Cc1ccccc1)c1ccnc(C(=O)N(O)Cc2ccccc2)c1 | 3.8
12 | O=C(NO)c1cc(-c2ccc(Cl)cc2)ccn1 | 26.6
13 | CNC(=O)c1cccc(-c2ccnc(C(=O)N(O)Cc3ccccc3)c2)c1 | -7.5
14 | CN(c1ccnc(C(=O)NO)c1)S(=O)(=O)Cc1ccccc1 | -1.7
15 | O=C(c1cc(N2CCCCC2)cc[n+]1[O-])N(O)Cc1ccccc1 | -1.83
16 | Cc1c(-c2ccccc2)sc2nc(NCCN)[nH]c(=O)c12 [SAV-7588] | 2.2
17 | Cc1c(-c2ccccc2)sc2nc(NC3CCCCC3)[nH]c(=O)c12 [SAV-7640] | -3.2
18 | CCONC(=O)c1ccc(-c2ccccc2)cn1 [drawing 173] | -3
19 | O=C(c1ccc(N2CCCC2)cn1)N(Cc1ccccc1)OCc1ccccc1 [drawing 178] | -2.7
20 | O=C(c1cc2ccccc2cn1)N(Cc1ccccc1)OCc1ccccc1 [drawing 179] | 1.3

Same assay, conditions: Influenza A virus, H3N2, activity conc 20 (μM per method); read-out: CPE H3N2 reduction (%)

Row | SMILES | inhibition at 20 µM [%]
21 | CCONC(=O)c1ccc(-c2cccc(CN(C)CCCc3ccccc3)c2)cn1 | 1.6
22 | CC(C)(C)OC(=O)N1CCC(c2ccnc(C(=O)N(O)Cc3ccccc3)c2)CC1 | 31.3
23 | O=C(NO)c1cc(NS(=O)(=O)Cc2cc(Cl)cc(Cl)c2)ccn1 | 28.9
24 | O=C(c1cc(N2CCC(F)(F)C2)ccn1)N(O)Cc1ccccc1 | 4.6
25 | O=C(NOCc1ccccc1)c1ccc(N2CCCC2)cn1 [drawing 177] | -8.7

Same assay, conditions: Influenza A virus, H3N2, activity conc 25 (μM per method); read-out: CPE H3N2 reduction (%)

Row | SMILES | inhibition at 25 µM [%]
26 | O=C(c1ccc(N2CCCC2)cn1)N(O)Cc1ccccc1 [drawing 180] | 1

Same assay, conditions: Influenza A virus, H3N2, activity conc 50 (μM per method); read-out: CPE H3N2 reduction (%)

Row | SMILES | inhibition at 50 µM [%]
27 | N/C(=N\O)c1ccc(C(=O)NO)nc1 | -4.8
28 | CON(C)C(=O)c1ccc2ccccc2n1 | -1.2
29 | CON(C)C(=O)c1cccc(C)n1 | -0.9
30 | CCONC(=O)c1cc(N)ccn1 | 10.5
31 | CCONC(=O)c1ccccn1 | 12.5
32 | CON(C)C(=O)c1cccc(C(=O)N(C)OC)n1 | -0.3
33 | CCONC(=O)c1ccc2ccccc2n1 | -2.2
34 | CCONC(=O)c1cc(NCC2CCN(Cc3ccccc3)CC2)ccn1 | 14.8
35 | CCONC(=O)c1cccc(C)n1 | -2.1
36 | CCONC(=O)c1ccc2c(=O)n(C)c(=O)n(C)c2n1 | -0.4
37 | COc1ccc2nc(C(=O)NOCc3ccccc3)ccc2c1 | -1.9
38 | Cc1cccc(C(=O)N(C)OCc2ccccc2)n1 | -2.3
39 | CCON(C)C(=O)c1cccc(C)n1 | -1.9
40 | CN(OCc1ccccc1)C(=O)c1ccc(-c2ccccc2)cn1 | -2.6
